A value given as a limit tells only on which side of the number the result lay.

Sigma non-opioid intracellular receptor 1, sequence (Q9R0C9 whole entry): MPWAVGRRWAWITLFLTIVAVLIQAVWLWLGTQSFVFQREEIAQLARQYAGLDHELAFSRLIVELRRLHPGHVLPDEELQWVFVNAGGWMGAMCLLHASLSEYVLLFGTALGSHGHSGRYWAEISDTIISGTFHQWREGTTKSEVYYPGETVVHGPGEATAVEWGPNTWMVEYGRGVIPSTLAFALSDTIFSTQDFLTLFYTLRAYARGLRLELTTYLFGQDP

One assay concerns the target Sigma non-opioid intracellular receptor 1 (Rattus norvegicus, UniProt Q9R0C9). The assay is described as follows: Displacement of [3H](+)-pentazocine from sigma 1 receptor in rat liver membrane. It is filed as cell membranes. (In a radioligand displacement assay an active substance lowers the binding of a labelled ligand.)
Broadly, the Ki is a dissociation constant, usually derived from enzyme kinetics or from competition with a known ligand. A lower Ki goes with tighter binding. Turning to `O=c1oc2ccccc2n1CC1CCN(Cc2ccccc2F)CC1`, affinity was put at a Ki of 23 nM. In other words, the double-digit nanomolar range.

`Cc1ccc(CN2CCC(Cn3c(=O)oc4ccccc43)CC2)c(C)c1` displayed a Ki of 30 nM.

In the case of `O=c1oc2ccccc2n1CC1CCN(Cc2ccc(F)cc2)CC1`, the inhibitory constant (Ki) was determined as 3.9 nM.

In the case of `Cc1ccccc1CN1CCC(Cn2c(=O)oc3ccccc32)CC1`, the inhibition constant Ki was 33 nM.

The compound `O=c1oc2ccccc2n1CC1CCN(Cc2ccc(-c3ccccc3)cc2)CC1` came in with a Ki of 394 nM.

In turn, `O=c1oc2ccccc2n1CC1CCN(Cc2ccc(Cl)cc2Cl)CC1` had an inhibitory constant (Ki) of 258 nM. This Ki lies about 1.5-fold lower than the previous one.

For `Cc1ccc(CN2CCC(Cn3c(=O)oc4ccccc43)CC2)cc1`, the affinity corresponds to a Ki of 2.9 nM.

In the case of `Cc1cc(C)c(CN2CCC(Cn3c(=O)oc4ccccc43)CC2)c(C)c1`, the inhibition constant (Ki) was found to be 6230 nM.

Biological target in a further assay: not listed separately
The assay is described as follows: Displacement of [3H]DTG from sigma 2 receptor in rat liver membrane. It is filed as cell membranes.
Take `O=C(CCCN1CCC(O)(c2ccc(Cl)cc2)CC1)c1ccc(F)cc1` [HALOPERIDOL]: the inhibition constant (Ki) stood at 235 nM. In other words, the sub-micromolar range.

The compound `O=c1oc2ccccc2n1CC1CCN(Cc2ccccc2F)CC1` came in with an inhibition constant (Ki) of 213 nM.

Turning to `Cc1ccc(CN2CCC(Cn3c(=O)oc4ccccc43)CC2)c(C)c1`, the Ki amounted to 187 nM. This Ki and that of the compound before are within 1.5-fold of each other.

`O=c1oc2ccccc2n1CC1CCN(Cc2ccccc2Cl)CC1` gave a Ki of 299 nM.

In turn, `Cc1ccc(CN(C)CCCCc2cn(-c3ccc(F)cc3)c3ccccc23)c(C)c1` came in with a Ki of 5.9 nM.

`CCC(=O)c1ccc2c(c1)oc(=O)n2CCCN1CCCCC1` registered an inhibition constant Ki of 8.5 nM.

On to `O=c1oc2ccccc2n1CC1CCN(Cc2ccc(F)cc2)CC1`, for which the inhibitory constant (Ki) was 170 nM.

In turn, `Cc1ccccc1NC(=N)Nc1ccccc1C` [DITOLYLGUANIDINE] displayed an inhibition constant (Ki) of 130 nM. The Ki values of the last two compounds are within 1.5-fold of each other.

In turn, `Cc1ccccc1CN1CCC(Cn2c(=O)oc3ccccc32)CC1` came in with an inhibition constant Ki of 338 nM.

As for `O=c1oc2ccccc2n1CC1CCN(Cc2ccc(-c3ccccc3)cc2)CC1`, the inhibition constant Ki is over 10000 nM.

Turning to `O=c1oc2ccccc2n1CC1CCN(Cc2ccc(Cl)cc2Cl)CC1`, the inhibition constant Ki was determined as 382 nM.

`Cc1ccc(CN2CCC(Cn3c(=O)oc4ccccc43)CC2)cc1` came in with an inhibition constant Ki of 116 nM.

Compound `CN(CCCc1cn(-c2ccc(F)cc2)c2ccccc12)Cc1ccccc1` gave an inhibition constant Ki of 5.9 nM.

Compound `O=c1oc2ccccc2n1CC1CCN(Cc2ccc(Cl)cc2)CC1` gave a Ki of 427 nM.

Compound `O=c1oc2ccccc2n1CC1CCN(Cc2ccccc2)CC1` had a Ki of 246 nM.

Compound `Cc1cc(C)c(CN2CCC(Cn3c(=O)oc4ccccc43)CC2)c(C)c1` came in with an inhibitory constant (Ki) of 2880 nM.

Take `CC(C)=CCN1CC[C@]2(C)c3cc(O)ccc3C[C@H]1[C@H]2C` [(+)-PENTAZOCINE]: the affinity corresponds to a Ki of 327 nM.

Regarding `O=c1oc2ccccc2n1CC1CCN(Cc2cccc3ccccc23)CC1`, the affinity corresponds to a Ki of 1290 nM.

Another assay is filed under the species Rattus norvegicus. The assay is described as follows: Selectivity ratio of Ki for rat liver sigma 2 receptor to Ki for rat liver sigma 1 receptor.
As for `O=c1oc2ccccc2n1CC1CCN(Cc2ccccc2F)CC1`, the Ratio Ki was 9.

For `Cc1ccc(CN2CCC(Cn3c(=O)oc4ccccc43)CC2)c(C)c1`, the Ratio Ki stood at 6.

Regarding `Cc1ccc(CN(C)CCCCc2cn(-c3ccc(F)cc3)c3ccccc23)c(C)c1`, the Ratio Ki amounted to 0.05.

For `CCC(=O)c1ccc2c(c1)oc(=O)n2CCCN1CCCCC1`, the Ratio Ki was 58.

On to `O=c1oc2ccccc2n1CC1CCN(Cc2ccc(F)cc2)CC1`, for which the Ratio Ki worked out at 44.

Regarding `Cc1ccccc1CN1CCC(Cn2c(=O)oc3ccccc32)CC1`, the Ratio Ki was determined as 10.

On to `O=c1oc2ccccc2n1CC1CCN(Cc2ccc(-c3ccccc3)cc2)CC1`, for which the Ratio Ki was over 25.

With `O=c1oc2ccccc2n1CC1CCN(Cc2ccc(Cl)cc2Cl)CC1`, the Ratio Ki was determined as 1.5.

Take `Cc1ccc(CN2CCC(Cn3c(=O)oc4ccccc43)CC2)cc1`: the Ratio Ki was found to be 40.

In the case of `CN(CCCc1cn(-c2ccc(F)cc2)c2ccccc12)Cc1ccccc1`, the Ratio Ki is 22.

For the compound `Cc1cc(C)c(CN2CCC(Cn3c(=O)oc4ccccc43)CC2)c(C)c1`, the Ratio Ki worked out at 0.5.

(Values after ChEMBL document CHEMBL1152852, “Substituted benzo[d]oxazol-2(3H)-one derivatives with preference for the sigma1 binding site” (Eur J Med Chem, 2009).)
